# In patent US9718868B2, “Parathyroid hormone, insulin, and related peptides conjugated to bone targeting moieties and methods and making and using thereof” (THE GOVERNORS OF THE UNIVERSITY OF ALBERTA, priority 2012, dated 2017):
# Test system: bone volume in ovariectomized rats
# Assay: Change in bone volume by microCT in ovariectomized rat model of osteoporosis
# Format: in vivo
# Conditions: OVX female rats, 60 μg/kg/day subcutaneous daily for 8 weeks starting 8 weeks after surgery; at 16 weeks post-ovariectomy; compared with sham, OVX-BP, OVX-PTH and weekly BP-PEG-PTH groups
# Excerpt: Sixty female rats were divided into five groups and evaluated using the ovariectomy procedure (OVX): control (sham-operated; n=12), ovariectomy with bisphosphonate treatment (OVX-BP; n=12), OVX with teriparatide treatment (OVX-PTH; daily; n=12), OVX with daily BP-PEG-PTH treatment (n=12), and OVX with weekly BP-PEG-PTH treatment (n=12), where BP is 2-[(3-mercaptopropyl)thio]ethane-1,1-diyl}bis(phosphonic acid). Rats were ovariectomized at week 0 and the control group underwent a sham ovariectomy. Rats were left untreated for 8 weeks after surgery to allow for osteopenia to develop. After 8 weeks, rats in the OVX-PTH group received daily subcutaneous injections of PTH (60 μg/kg/day) for 8 weeks. Rats in the OVX-BP group received daily doses of bisphosphonate. Rats in the OVX-BP-PEG-PTH daily group received daily subcutaneous injections of BP-PEG-PTH (60 μg/kg/day). Rats in the OVX-BP-PEG-PTH weekly group received weekly subcutaneous injections of BP-PEG-PTH (60 μg/kg/week).
# In vivo change in bone volume was measured by micro-computed tomography (microCT).
substance,measurement,value
"BP-PEG-PTH: hPTH (1-34) conjugated via Maleimide-PEG3500-NHS linker to thiol-bisphosphonate 2-[(3-mercaptopropyl)thio]ethane-1,1-diyl}bis(phosphonic acid)",In vivo change in bone volume (microCT),greatest increase in bone volume
